# Tested on: Rat1 fibroblast cells
# Test: Transfection efficiency with pCMV-LacZ DNA, β-galactosidase activity of cell lysate (ONPG assay)
# Type: cell-based, rat
# Conditions: for transfection efficiency alone or in combination with PEI, compared with PEI alone / transfection efficiency when combined to PEI as compared to PEI alone: PEI N/P=10; for transfection efficiency alone or in combination with PEI, compared with PEI alone: lipid 2 mg/ml; for transfection efficiency when combined to PEI as compared to PEI alone: 0.25 to 7.5 μl lipid per ug DNA
# Protocol: Transfection complexes were prepared as described by Boussif et al. (Boussif et al., 1995).
# Lipid was diluted in 100 μl of growth media without serum and antibiotics. The solutions were immediately homogenized and left at room temperature for 5-10 min. […] The combined material was vortexed and incubated at room temperature for 20 min before addition to the cells.
# Rat1 fibroblast cells were maintained in modified Eagle medium (MEM) (Life Technologies) and VSMC cells were maintained in Dulbecco's modified Eagle medium (DMEM) (Life Technologies). Both cell lines were cultured in media containing 10% heat inactivated calf serum (Life Technologies), 1% penicillin-streptomycin, and L-glutamine in 10 cm tissue culture flasks at 37° C. in a humidified 5% CO2 atmosphere. Cells were grown to 80% confluency, detached with trypsin-EDTA and replated in 2 new flasks 18-24 h before transfection. Two to three hours before transfections, cells were again detached, and seeded at a density of 5×10^4 cells per well in 24-multiwell tissue culture plates.
# At the time of transfection, cells were supplemented with 200-400 μl of fresh complete media containing 10% calf serum and antibiotics unless otherwise specified. Transfection solution was added to each well and the plates were incubated at 37° C. in a humidified atmosphere containing 5% CO2. After 6 h of transfection, the transfecting solution was removed, cells were washed once with appropriate cell culture medium and then covered with 1 ml of the same medium. Cells were maintained for an additional 36-48 h.
# Following transfections with pCMV-LacZ DNA (36-48 h later), cells were washed twice with ice-cold 0.1 M phosphate buffered saline (PBS) and lysed with 250 μl lysis buffer (10 mM Tris-HCl pH 7.5, 1 mM EDTA, 100 mM NaCl, 5 mM MgCl2 and 1% Nonidet P40™ (Boehringer Mannheim)). Lysates were centrifuged 15 000×g at 4° C. for 5 min. The supernatant was collected and its protein concentration was determined using the BCA protein assay kit (PIERCE) using the microwell protocol according to the manufacturer's specifications. β-galactosidase assay was performed as described by Eustice et al. (Eustice et al., 1991) Briefly, β-galactosidase activity was measured in 240 μl assay mixture containing 80 mM sodium phosphate buffer, pH 7.3, 102 mM 2-mercaptoethanol, 9.0 mM MgCl2 and 8.0 mM ONPG (o-nitrophenyl-β-D-galactopyranoside, SIGMA). Samples, (1-40 μl) of each lysate were assayed in the reaction mixture at 37° C. for 30 min in 96-well plates. Absorbance was measured at 405 nm. E. coli β-galactosidase (Roche) was used to generate a standard curve.
Compound,"transfection efficiency alone or in combination with PEI, compared with PEI alone (1 μg DNA)",transfection efficiency when combined to PEI as compared to PEI alone (1 μg DNA),further results
"CCCCCCCC/C=C\CCCCCCCC(=O)OCC(CN(C)C)OC(=O)CCCCCCC/C=C\CCCCCCCC (stereo not drawn) [1,2-dioleoyl-3-dimethylammonium-propane]","did not display, alone or in combination with PEI, transfection efficiencies that were better or even equal to that obtained with PEI alone",,
"CCCCCCCC/C=C\CCCCCCCC(=O)OCC(C[N+](C)(C)C)OC(=O)CCCCCCC/C=C\CCCCCCCC (stereo not drawn) [1,2-dioleoyl-3-trimethylammonium-propane]","did not display, alone or in combination with PEI, transfection efficiencies that were better or even equal to that obtained with PEI alone",,
"CCCCCCCC/C=C\CCCCCCCC(=O)OC[C@@H](COP(=O)(OCC)OCC[N+](C)(C)C)OC(=O)CCCCCCC/C=C\CCCCCCCC (stereo partly drawn) [1,2-dioleoyl-sn-glycero-3-ethylphosphocholine]","did not display, alone or in combination with PEI, transfection efficiencies that were better or even equal to that obtained with PEI alone",,
"CCCCCCCC/C=C\CCCCCCCC(=O)OC[C@H](COP(=O)([O-])OCC[N+](C)(C)C)OC(=O)CCCCCCC/C=C\CCCCCCCC [DOPC, 1,2-Dioleoly-sn-Glycero-3-Phosphocholine]",,enhance transfection efficiency,
"CCCCCCCC/C=C\CCCCCCCC(=O)OC[C@H](COP(=O)(O)OCCN)OC(=O)CCCCCCC/C=C\CCCCCCCC [DOPE, 1,2-Dioleoyl-sn-Glycero-3-Phosphoethanolamine]",,enhance transfection efficiency,"β-galactosidase activity when combined to DNA alone (0.25 to 7.5 μl per ug DNA, without PEI): no β-galactosidase activity; increase of transfection efficiency over PEI alone (combined with PEI (N/P=10), 1 μg DNA): ≤ 26 fold"
"CC(C)CCCC(C)CCCC(C)CCCC(C)CC(=O)OC[C@H](COP(=O)(O)OCCN)OC(=O)CC(C)CCCC(C)CCCC(C)CCCC(C)C (stereo partly drawn) [DPPE, 1,2-Diphytanoyl-sn-Glycero-3-Phosphoethanolamine]",,enhance transfection efficiency,
L-α-phosphatidylcholine,"did not display, alone or in combination with PEI, transfection efficiencies that were better or even equal to that obtained with PEI alone",,
